{"source": "paper PMC3261875", "about": "(PLoS ONE, 2012)", "target": "T1, human heme oxygenase-2 (hHO-2) (Homo sapiens, UniProt P30519)", "T1 construct": "gene HMOX2; truncation derivative, 1–264 amino acids with an N-terminal His-tag", "T1 sequence (P30519 1-264)": "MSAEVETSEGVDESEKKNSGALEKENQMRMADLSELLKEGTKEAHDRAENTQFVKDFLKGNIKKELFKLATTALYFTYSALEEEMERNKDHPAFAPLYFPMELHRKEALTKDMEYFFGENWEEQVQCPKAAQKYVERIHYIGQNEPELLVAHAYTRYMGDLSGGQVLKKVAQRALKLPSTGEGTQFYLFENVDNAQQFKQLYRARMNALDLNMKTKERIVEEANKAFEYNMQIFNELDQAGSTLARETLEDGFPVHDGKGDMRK", "experiment": "spectral (Soret) binding and heme degradation assay on purified protein", "data": [{"compound": "O=C(CC(c1ccccc1)c1ccccc1)Cn1ccnc1", "note": "[QC-308, 1-(1H-imidazol-1-yl)-4,4-diphenyl-2-butanone]", "values": [{"measurement": "spectral (Soret) binding and heme degradation assay on purified protein", "value": "the spectral changes upon addition of QC-308 were similar to those seen for hHO-1"}]}]}
